These results are taken from patent US20040235932A1, “Ophthalmic pharmaceutical compositions” (priority 2001, published 2004).

In assay [1] the test system is patients suffering from ocular hypertension. The settings on record: cited from earlier work.
In assay [2] the test system is Dutch male colored rabbits. Description: Activity to reduce intraocular pressure on continuous eye drop administration in rabbits. Type of assay: in vivo, rabbit. The settings on record: for Difference in intraocular pressure after the administration: test eye vs control eye, mean±S.E.; for time of maximum reduction in intraocular pressure after the administration: all determination days to the 57th day. The method, then: KRG-3332 as prepared in Reference Example 2 was dissolved in physiological saline to prepare a 0.01% solution, which was used as test solution 1 (0.01% eye drop) in the following method for determining the activity to reduce intraocular pressure. […] For the administration of eye drop, each 50 ρL of the test solution and the control (physiological saline) was administered to one eye and the other eye respectively, twice a day (11:00 and 19:00), and the administration continued for up to 57 days. The corneal surfaces of the animals were anaesthetized with 0.4% oxybuprocaine hydrochloride eye drop to, and the intraocular pressure was determined at time points of 11:00 (before the administration), 13:00(2 hours after the administration), 15:00 (4 hours after the administration) and 19:00 (8 hours after the administration, immediately before the second administration) one day before the administration and thereafter every week using an air applanation ophthalmotonometer (ALCON JAPAN LTD.). Average (mean±S.E.) of the difference between the intraocular pressures of eyes administered with the test solution and the control as determined at each time point, and the relevant t-test results were estimated. KRG-3332 was dissolved in physiological saline to prepare a 0.1% solution, which was used as test solution 2 (0.1% eye drop) in the determination of the activity to reduce intraocular pressure in a similar manner to above (1). For the comparison, bunazosin hydrochloride was dissolved in physiological saline to prepare a 0.03% solution, which was used as test solution 3 (reference drug, 0.03% eye drop of bunazosin hydrochloride) in the determination of the activity to reduce intraocular pressure in a similar manner to above (1) and (2).

`COC(=O)[C@H]1[C@H]2C[C@H]3c4[nH]c5ccccc5c4CCN3C[C@@H]2CC[C@@H]1O` [corynanthine, methyl 17α-hydroxyyohimban-16β-carboxylate]: the “activity for reducing intraocular pressure” value in assay [1] (concentrations of 2 to 5% in eye drops) is “demonstrated Lo have an activity for reducing intraocular pressure”. In assay [1] (continued administration for a week), the “development of drug resistance” value is recorded as “the continued administration thereof for a week developed drug resistance”.

For the compound `CCOc1ccccc1OCCN[C@H](C)Cc1cc(C(N)=O)c2c(ccn2CCCOC(=O)C(C)(C)C)c1.Cl` [KRG-3332, (R)-3-[7-carbamoyl-5-[2-[[2-(2-ethoxyphenoxy)ethyl]amino]propyl]-1H-indol-1-yl]propyl pivalate hydrochloride], in assay [2] (0.01% and 0.1% eye drops twice a day for up to 57 days), the “development of drug resistance (change in activity to reduce intraocular pressure by continuous administration)” value is reported as “no development of drug resistance”. For the same compound, the “Difference in intraocular pressure after the administration” value (shortened to “Difference in intraocular pressure”) was 0.050 ± 0.398 mmHg in assay [2] (0.01% eye drop, 1st day, 0 hours after the administration); −0.400 ± 0.392 mmHg in assay [2] (0.01% eye drop, 1st day, 8 hours after the administration); −0.200 ± 0.242 mmHg in assay [2] (0.01% eye drop, 8th day, 0 hours after the administration); −1.600 ± 0.882 mmHg in assay [2] (0.01% eye drop, 15th day, 4 hours after the administration); −0.350 ± 0.828 mmHg in assay [2] (0.01% eye drop, 15th day, 8 hours after the administration); −0.850 ± 0.589 mmHg in assay [2] (0.01% eye drop, 22nd day, 0 hours after the administration). Further, the “Difference in intraocular pressure” value in assay [2] (0.01% eye drop, 22nd day, 8 hours after the administration) was −0.550 ± 0.348 mmHg; in assay [2] (0.01% eye drop, 29th day, 8 hours after the administration), −0.400 ± 0.392 mmHg; in assay [2] (0.01% eye drop, 36th day, 0 hours after the administration) it was −0.500 ± 0.447 mmHg; in assay [2] (0.01% eye drop, 36th day, 4 hours after the administration), −1.349 ± 0.831 mmHg; in assay [2] (0.01% eye drop, 36th day, 8 hours after the administration), −1.250 ± 0.818 mmHg; in assay [2] (0.01% eye drop, 43rd day, 0 hours after the administration) it was −0.150 ± 0.491 mmHg. Besides, the “Difference in intraocular pressure” value in assay [2] (0.01% eye drop, 43rd day, 8 hours after the administration) is given as 0.100 ± 0.376 mmHg; in assay [2] (0.01% eye drop, 50th day, 0 hours after the administration), −0.400 ± 0.430 mmHg; in assay [2] (0.01% eye drop, 50th day, 8 hours after the administration) it was −0.900 ± 0.551 mmHg; in assay [2] (0.01% eye drop, 57th day, 0 hours after the administration) it was 0.050 ± 0.366 mmHg; in assay [2] (0.01% eye drop, 57th day, 8 hours after the administration) it was −0.150 ± 0.400 mmHg; in assay [2] (0.1% eye drop, 1st day, 0 hours after the administration), 0.000 ± 0.285 mmHg. Also, the “Difference in intraocular pressure” value was −1.050 ± 0.619 mmHg in assay [2] (0.1% eye drop, 8th day, 0 hours after the administration); −1.350 ± 0.944 mmHg in assay [2] (0.1% eye drop, 15th day, 0 hours after the administration); −1.700 ± 0.917 mmHg in assay [2] (0.1% eye drop, 15th day, 8 hours after the administration); −1.050 ± 0.878 mmHg in assay [2] (0.1% eye drop, 36th day, 0 hours after the administration); −2.250 ± 0.862 mmHg in assay [2] (0.1% eye drop, 43rd day, 8 hours after the administration); −0.600 ± 0.801 mmHg in assay [2] (0.1% eye drop, 50th day, 0 hours after the administration). In addition, the “Difference in intraocular pressure” value in assay [2] (0.1% eye drop, 50th day, 4 hours after the administration) is recorded as −1.950 ± 0.756 mmHg; in assay [2] (0.1% eye drop, 50th day, 8 hours after the administration), −1.150 ± 0.573 mmHg; in assay [2] (0.1% eye drop, 57th day, 0 hours after the administration), −1.500 ± 0.822 mmHg. Also, the “time of maximum reduction in intraocular pressure after the administration” value in assay [2] (0.01% eye drop) and in assay [2] (0.1% eye drop) was 2 h throughout.
